Data from the supplement of paper PMC10307832.

Assays:
Experiment in all cases: relative viability (nuclei count vs DMSO), 5 days (fraction); higher = more cells survive
R406 + Olaparib = compound: COc1cc(Nc2ncc(F)c(Nc3ccc4c(n3)NC(=O)C(C)(C)O4)n2)cc(OC)c1OC [R406] + O=C(c1cc(Cc2n[nH]c(=O)c3ccccc23)ccc1F)N1CCN(C(=O)C2CC2)CC1 [Olaparib] (partner 8 µM)
Procedure, shortened: (§1)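 A single step with final 0.05% Triton X-100, 1% formaldehyde and 1 ug/ml Hoechst fixed the cells and stained nuclei 5 days after treatment. Lung cancer cell lines in 1536-well plates had been treated by pin tool the day after seeding with one drug alone or a fixed anchor-drug dose plus five library-drug doses (not always all listed) in √10 steps, and nuclei were counted on 4× images. Relative viability is the ratio of nuclei in treated wells to nuclei in vehicle wells, taken as the median of duplicate plates.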

Daporinad + Bortezomib = compound: O=C(/C=C/c1cccnc1)NCCCCC1CCN(C(=O)c2ccccc2)CC1 [Daporinad] + CC(C)C[C@H](NC(=O)[C@H](Cc1ccccc1)NC(=O)c1cnccn1)B(O)O [Bortezomib] (partner 0.002 µM)
Procedure, shortened: as §1

R406 + Alpelisib = compound: COc1cc(Nc2ncc(F)c(Nc3ccc4c(n3)NC(=O)C(C)(C)O4)n2)cc(OC)c1OC [R406] + Cc1nc(NC(=O)N2CCC[C@H]2C(N)=O)sc1-c1ccnc(C(C)(C)C(F)(F)F)c1 [Alpelisib] (partner 2 µM)
Procedure, shortened: as §1

Daporinad + Linsitinib = compound: O=C(/C=C/c1cccnc1)NCCCCC1CCN(C(=O)c2ccccc2)CC1 [Daporinad] + C[C@]1(O)C[C@@H](c2nc(-c3ccc4ccc(-c5ccccc5)nc4c3)c3c(N)nccn32)C1 [Linsitinib] (partner 1 µM)
Procedure, shortened: as §1

Cell Line	relative viability (R406 + Olaparib; first compound 0.08 µM)	relative viability (R406 + Olaparib; first compound 0.253 µM)	relative viability (R406 + Olaparib; first compound 0.8 µM)	relative viability (R406 + Olaparib; first compound 2.53 µM)	relative viability (R406 + Olaparib; first compound 8 µM)	relative viability (Daporinad + Bortezomib; first compound 0.0005 µM)	relative viability (Daporinad + Bortezomib; first compound 0.001581 µM)	relative viability (Daporinad + Bortezomib; first compound 0.005 µM)	relative viability (Daporinad + Bortezomib; first compound 0.01581 µM)	relative viability (R406 + Alpelisib; first compound 0.08 µM)	relative viability (R406 + Alpelisib; first compound 0.253 µM)	relative viability (R406 + Alpelisib; first compound 0.8 µM)	relative viability (R406 + Alpelisib; first compound 2.53 µM)	relative viability (R406 + Alpelisib; first compound 8 µM)	relative viability (Daporinad + Linsitinib; first compound 0.0005 µM)	relative viability (Daporinad + Linsitinib; first compound 0.001581 µM)	relative viability (Daporinad + Linsitinib; first compound 0.005 µM)	relative viability (Daporinad + Linsitinib; first compound 0.01581 µM)
NCI-H838	0.725	0.798	0.908	0.248	0.142	0.795	1.2	0.828	0.443	0.971	1.11	1.16	0.547	0.541	1.17	1.14	0.832	0.558
NCI-H460	0.363	0.577	0.441	0.434	0.341	1.1	1.17	1.05	1.05	0.495	0.476	0.665		0.0573	0.759	0.928	0.818	0.777
LOU-NH91	0.898	0.956	0.934	0.658	0.478	0.532	0.465	0.559	0.559	0.726	0.718	0.789	0.51	0.449	0.854	1.04	1.14	1.52
NCI-H3122	0.637	0.739	0.69	0.566	0.625	1.02	1.01	1.02	1.05	0.729	0.807	0.739	0.695	0.678	1.01	1.01	1.02	1
NCI-H520	0.314	0.34	0.329	0.194	0.126	0.624	0.686	0.223	0.151	0.913	1.09	0.779	0.316	0.525	0.87	0.445	0.177	0.149
NCI-H661	0.731	0.783	0.673	0.697	0.591	0.941	0.867	0.659	0.477	0.299	0.878	0.877	0.597	0.274	0.488	0.555	0.561	0.405
NCI-H727	0.533	0.67	0.666	0.75	0.663	0.813	0.798	0.838	0.858	0.56	0.574	0.61	0.497	0.245	0.282	0.337	0.244	0.261
NCI-H1734	0.641	0.654	0.688	0.542	0.417	0.937	0.967	0.888	0.333	0.67	0.732	0.748	0.521	0.465	0.841	0.962	0.894	0.732
LXF-289	1.08	1.18	1.12	1.02	0.219	0.965	1.08	1.05	1.07	0.977	1.06	1.04	1	0.193	0.904	0.972	1	1.1
